Source: patent US20210134398A1, “Combinatorial Chemistry Computational System and Enhanced Selection Method” (Southern Methodist University, priority 2019, published 2021)
Entries after “also recorded” stand apart in the source; their conditions may differ.

Assays:
[1] = test system: P-gp overexpressing prostate cancer cell line, DU145TXR; experiment: MTT cell viability assay, resensitization to paclitaxel; assay type: cell-based, human; details: for Fold vs PTX + 29: vs paclitaxel + parental compound 29; for Fold vs PTX (fold increased sensitivity): vs paclitaxel alone; for Resensitization of DU145TXR to paclitaxel / MDR reversal (in words): 3 to 10 μM inhibitor
Text: The Group 1 ChemGen/docking routine produced variants of P-gp inhibitor 29 resensitize a multidrug resistant, P-gp overexpressing prostate cancer cell line to paclitaxel. The mitochondrial reduction potential of cells is often used as an indicator for cell viability using MTT assays^4. Using these assays it was observed that the five Group 1 derivatives of 29 predicted through the ChemGen/docking routine and synthesized here, 216, 227, 231, 541 and 551, re-sensitized the P-gp overexpressing prostate cancer cell line, DU145TXR^33, to the chemotherapeutic, paclitaxel (FIG. 12, showing results of assays at concentrations of 3 μM, 5 μM, 7 μM, and 10 μM).
Cytotoxicity of the chemotherapeutic, paclitaxel (PTX) to P-gp overexpressing prostate cancer cells, DU145TXR, was determined in the absence and presence of the ChemGen designed 29-variants, 216, 227, 231, 541 and 551. For each experimental compound IC50 values of PTX alone or in the presence of inhibitors, fold improvement of PTX sensitivity in the presence of inhibitor, and fold improvement of PTX sensitivity by variants compared to parental compound 29 are given.
Effects of Group 2 variants on the paclitaxel sensitivity of P-glycoprotein overexpressing prostate cancer cells, DU145TXR. MTT assays were again used to assess the efficacy of the new structural 29-variants on sensitizing the chemotherapy-resistant prostate cancer cell line, DU145TXR, to paclitaxel, at concentrations of 3 μM, 5 μM, 7 μM, and 10 μM as shown in FIG. 15 and Table 4.
MTT cell viability assay. Cells were trypsinized from monolayers and seeded with 3000 cells in 150 μL of complete medium in a 96 well plate. After 24 hours, cells were treated for 48 hours with paclitaxel (Acros Organics, NJ) and/or P-gp inhibitory compounds dissolved in DMSO, or DMSO controls. All additions were diluted into complete medium. After 48 hours of treatment, MTT assays were performed as described^41 using 5 mg/mL of MTT (Acros Organics, NJ) solution prepared in PBS (137 mM NaCl, 2.7 mM KCl, 10 mM Na2HPO4, 1.8 mM KH2PO4, pH 7.4). After 4 hours of incubation with MTT, the media was removed and the formazan crystals were dissolved in 100 μL of DMSO. The absorbance at 570 nm was then measured using a BioTek Cytation 5 imaging multi-mode reader (Bio-Tek, Winooski, Vt.). Percent viability was calculated using DMSO treated cells as representative for 100% viability, according to Equation 1. Background absorbance was determined using MTT and complete medium without cells and subtracted from all the test values. Equation 1:
The results were plotted as the mean with standard deviation (SD) of eight replicates per concentration from at least two independent experiments with n=8. The graphical representations and IC50 values were determined using four parameter variable slope non-linear regression, using the following equation: Y=bottom+(top-bottom)/(1+10^((log IC50−X)*Hill Slope) (GraphPad Prism™, La Jolla Calif., USA, Version 6.05). The reported “fold sensitization” was calculated as follows, per Equation 2: […]

[2] = biological target: T1, P-gp-catalyzed transport of calcein AM in DU145TXR cells (Homo sapiens, UniProt P08183); experiment: Calcein AM accumulation assay; assay type: cell-based; details: after 6-hour pre-incubation, compared to parental 29
T1 construct: DU145 human prostate cancer cells^52 as well as the multidrug resistant sub-line, DU145TXR; endogenous in cells; host or cells: DU145TXR (paclitaxel-selected sub-line of human DU145 prostate cancer cells)
T1 sequence (P08183 whole entry): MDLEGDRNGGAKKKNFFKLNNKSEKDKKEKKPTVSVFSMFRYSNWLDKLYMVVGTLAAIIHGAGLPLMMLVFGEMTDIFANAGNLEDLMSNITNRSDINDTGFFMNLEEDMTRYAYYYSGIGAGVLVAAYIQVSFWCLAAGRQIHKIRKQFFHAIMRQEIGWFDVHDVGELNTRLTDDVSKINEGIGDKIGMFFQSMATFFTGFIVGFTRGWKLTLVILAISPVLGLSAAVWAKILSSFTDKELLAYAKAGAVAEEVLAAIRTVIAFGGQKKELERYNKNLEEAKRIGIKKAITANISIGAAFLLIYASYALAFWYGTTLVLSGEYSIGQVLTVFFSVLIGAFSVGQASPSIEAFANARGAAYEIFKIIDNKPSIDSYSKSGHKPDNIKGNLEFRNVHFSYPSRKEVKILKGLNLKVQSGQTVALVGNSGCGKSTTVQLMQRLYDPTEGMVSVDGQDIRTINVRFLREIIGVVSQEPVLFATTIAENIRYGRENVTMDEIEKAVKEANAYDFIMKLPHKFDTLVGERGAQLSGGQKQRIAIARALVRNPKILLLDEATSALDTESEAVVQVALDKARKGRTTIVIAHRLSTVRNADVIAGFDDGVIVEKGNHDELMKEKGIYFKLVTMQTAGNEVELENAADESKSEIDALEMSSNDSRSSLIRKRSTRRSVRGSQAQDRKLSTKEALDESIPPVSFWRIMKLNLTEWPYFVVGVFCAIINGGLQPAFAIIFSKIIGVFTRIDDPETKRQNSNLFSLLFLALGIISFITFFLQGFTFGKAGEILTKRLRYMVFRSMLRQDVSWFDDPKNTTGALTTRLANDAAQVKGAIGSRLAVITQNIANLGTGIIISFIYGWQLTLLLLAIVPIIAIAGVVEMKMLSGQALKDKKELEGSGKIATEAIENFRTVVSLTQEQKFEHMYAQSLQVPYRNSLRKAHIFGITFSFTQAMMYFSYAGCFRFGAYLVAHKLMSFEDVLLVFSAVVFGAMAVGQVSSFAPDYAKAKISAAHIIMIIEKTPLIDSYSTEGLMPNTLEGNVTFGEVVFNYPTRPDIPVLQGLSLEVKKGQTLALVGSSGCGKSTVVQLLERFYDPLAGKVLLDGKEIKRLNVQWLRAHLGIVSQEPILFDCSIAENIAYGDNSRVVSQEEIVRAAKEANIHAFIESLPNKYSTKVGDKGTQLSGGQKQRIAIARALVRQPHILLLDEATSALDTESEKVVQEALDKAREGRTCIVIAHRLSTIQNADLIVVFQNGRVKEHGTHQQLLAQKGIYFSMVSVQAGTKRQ
Method: Accumulation and cellular retention of calcein AM in P-gp overexpressing prostate cancer cells upon incubation with Group 1 SMU-29 variants. Calcein AM accumulation assays have been used by us previously to evaluate P-gp-substrate accumulation in real time in the presence or absence of P-gp inhibitors^28. For these assays, P-gp overexpressing DU145TXR cells were incubated with the respective inhibitors in the presence of the P-gp substrate, calcein AM. Inhibition of P-gp leads to cellular accumulation of calcein AM and to cleavage of its acetoxymethyl ester groups, resulting in the generation of the highly fluorescent compound, calcein. The anionic calcein is not a substrate of P-gp and remains in the cells. In these assays, the relative fluorescence of cellular calcein was measured over time and the results of these assays are shown in FIG. 13A. […]
Calcein AM assay. To assess inhibition of P-gp-catalyzed transport of the P-gp pump substrate, calcein AM, DU145TXR cells were seeded in 96 wells plates and allowed to grow in complete medium until confluency was reached. Medium was removed, and cells were treated […] P-gp inhibitory compounds and 1 μg/mL calcein AM (Life Technologies, OR) and diluted into phenol red free RPMI 1640 media. To study the effect of pre-incubation of compounds, cells were treated with just P-gp inhibitory compounds and incubated at 37° C. for six hours before adding calcein AM. Fluorescence excitation at 485 nm with a 20 nm gate and at emission at 535 nm with a 20 nm gate was measured using a BioTek Cytation 5 imaging multi-mode reader (Bio-Tek, Winooski, Vt.) over 60 minutes in 20 minute intervals. DMSO was used as vehicle. Results were plotted as the mean with standard deviation (SD) of six replicates per concentration and are representative of at least two independent experiments.

Compound	Fold vs PTX + 29 ([1]; 5 μM inhibitor)	Fold vs PTX (fold increased sensitivity) ([1]; 5 μM inhibitor)	Fold vs PTX + 29 ([1]; 7 μM inhibitor)	Fold vs PTX (fold increased sensitivity) ([1]; 7 μM inhibitor)	Fold vs PTX + 29 ([1]; 10 μM inhibitor) [fold]	Fold vs PTX (fold increased sensitivity) ([1]; 10 μM inhibitor) [fold]	Fold vs PTX (fold increased sensitivity) ([1]; 3 μM inhibitor) [fold]	Calcein accumulation in DU145TXR (in words) [2]	also measured
2-{[2-(9H-flouoren-2-yl)-2-oxoethyl]}-N-[1-phenyl-3-(2,4,5-trimethylphenyl0-1H-pyrazol-5-yl]acetamide [29-216]	1.3 fold	14 fold	1 fold	34 fold	0.4	37	–	–	–
Cc1cc(C)c(-c2cc(NC(=O)CSCC(=O)N3c4ccccc4CCc4ccccc43)n(-c3ccccc3)n2)cc1C [29-227, 2-[(2-{2-azatricyclo[9.4.0.0]pentadeca-1(11),3(8},4,6,12,14-hexaen-2-yl)-2-oxoethyl)sulfanyl]-N-[1-phenyl-3-(2,4,5-trimethylphenyl)-1H-pyrazol-5-yl]acetamide]	3.7 fold	41 fold	10 fold	353 fold	5	530	13	–	Fold vs PTX + 29 ([1]; 3 μM inhibitor, listed as 227): 3.8 fold; Resensitization of DU145TXR to paclitaxel / MDR reversal (in words) ([1]; listed as 227): re-sensitized; also recorded: more effective than 29 at all concentrations tested
Cc1cc(C)c(-c2cc(NC(=O)CSCC(=O)Nc3ccc4ccccc4c3)n(-c3ccccc3)n2)cc1C [29-231, 2-({[(naphthalen-2-yl)carbamoyl]methyl}sulfanyl)-N-[1-phenyl-3-(2,4,5-trimethylphenyl)-1H-pyrazol-5-yl]acetamide]	4.2 fold	46 fold	8.4 fold	303 fold	11	1060	14	–	Fold vs PTX + 29 ([1]; 3 μM inhibitor, listed as 231): 4.1 fold; Resensitization of DU145TXR to paclitaxel / MDR reversal (in words) ([1]; listed as 231): re-sensitized; also recorded: more effective than 29 at all concentrations tested
COc1cc(NC(=O)CSCC(=O)Nc2cc(-c3cc(C)c(C)cc3C)nn2-c2ccccc2)cc(OC)c1OC [29-238, N-[1-phenyl-3-(2,4,5-trimethylphenyl)-1H-pyrazol-5-yl]-2-({[(3,4,5-trimethoxyphenyl)carbamoyl]methyl}sulfanyl)acetamide]	around 100 fold	about a thousand-fold	around 100 fold	–	300	–	–	remained strongest	Fold vs PTX + 29 ([1]; 3 μM inhibitor): 3.4 fold; Resensitization of DU145TXR to paclitaxel / MDR reversal (in words) ([1]; listed as 238): increased paclitaxel toxicities to the greatest extents; also recorded: vastly outperformed compounds 278, 280 and 286; also recorded: strongest reversal of MDR
Cc1cc(C)c(-c2cc(NC(=O)CSCC(=O)Nc3ccc4ncsc4c3)n(-c3ccccc3)n2)cc1C [29-255, 2-({[(1,3-benzothiazol-6-yl)carbamoyl]methyl}sulfanyl)-N-[1-phenyl-3-(2,4,5 trimethylphenyl)-1H-pyrazol-5-yl]acetamide]	–	–	–	about a thousand-fold	–	–	–	remained strongest	Fold vs PTX + 29 ([1]; 3 μM inhibitor): comparable to 238 at 3 μM; Resensitization of DU145TXR to paclitaxel / MDR reversal (in words) ([1]; listed as 255): increased paclitaxel toxicities to the greatest extents; also recorded: vastly outperformed compounds 278, 280 and 286; also recorded: reversed MDR
Cc1cc(C)c(-c2cc(NC(=O)CSCC(=O)NC34CC5CC(CC(C5)C3)C4)n(-c3ccccc3)n2)cc1C [29-278, 2-({[(adamantan-1-yl)carbamoyl]methyl}sulfanyl)-N-[1-phenyl-3-(2,4,5-trimethylphenyl)-1H-pyrazol-5-yl]acetamide]	–	–	–	–	–	–	–	increased calcein accumulation	Resensitization of DU145TXR to paclitaxel / MDR reversal (in words) ([1]; listed as 278): affected MDR relatively weakly; Calcein accumulation in DU145TXR (in words) ([2]; listed as 278): comparable to 29
Cc1cc(C)c(-c2cc(NC(=O)CSCC(=O)NC(c3ccccc3)c3ccccc3)n(-c3ccccc3)n2)cc1C [29-280, N-(diphenylmethyl)-2-[({[1-phenyl-3-(2,4,5-trimethylphenyl)-1H-pyrazol-5-yl]carbamoyl)methyl}sulfanyl]acetamide]	–	–	–	–	–	–	–	comparable to 29	–
Cc1cc(C)c(-c2cc(NC(=O)CSCC(=O)NCc3ccc(F)cc3)n(-c3ccccc3)n2)cc1C [29-286]	–	–	–	–	–	–	–	comparable to 29	Resensitization of DU145TXR to paclitaxel / MDR reversal (in words) ([1]; listed as 286): little effect
Cc1cc(C)c(-c2cc(NC(=O)CSc3nnc4c(n3)[nH]c3ccccc34)n(-c3ccccc3)n2)cc1C [29-541, 2-((5H-[1,2,4]triazino[5,6-b]indol-3-yl)thio)-N-(1-phenyl-3-(2,4,5-trimethylphenyl)-1H-pyrazol-5-yl)acetamide]	–	–	–	–	–	–	–	–	Resensitization of DU145TXR to paclitaxel / MDR reversal (in words) ([1]; listed as 541): re-sensitized; also recorded: more effective than 29 at all concentrations tested; Calcein accumulation in DU145TXR (in words) ([2]; listed as 541): exceeded 29 significantly; also recorded: exceeded 29 upon preincubation
Cc1cc(C)c(-c2cc(NC(=O)CSc3cccc(NC(=O)c4cncc(Br)c4)c3)n(-c3ccccc3)n2)cc1C [29-551, 5-bromo-N-(3-((2-oxo-2-((1-phenyl-3-(2,4,5-trimethylphenyl)-1H-pyrazol-5-yl)amino)ethyl)thio)phenyl)nicotinamide]	–	–	–	–	–	–	38	equivalent to 29 in efficacy	Resensitization of DU145TXR to paclitaxel / MDR reversal (in words) ([1]; listed as 551): re-sensitized; also recorded: more effective than 29 at all concentrations tested
Cc1cc(C)c(-c2cc(NC(=O)CSc3nnc(C4CC4)[nH]3)n(-c3ccccc3)n2)cc1C [compound 29, reference compound]	1 fold	11 fold	1 fold	36 fold	1	101	3	–	Fold vs PTX + 29 ([1]; 3 μM inhibitor): 1 fold
